We go through 2 compounds from patent publication US6897217B2, “2-Alkynyl-and 2-alkenyl-pyrazolo-[4,3-e]-1,2,4-triazolo-[1,5-c]-pyrimidine adenosine A2a receptor antagonists” (Schering Corporation, priority 2003, dated 2005).

The test has as its target T1, Human A2a Adenosine Receptor (Homo sapiens, UniProt P29274).
T1 construct: purchased Receptor Biology, Inc., Beltsville, Md; RB-HA2a
Kind of test: Human adenosine A2a receptor competition binding assay. The settings on record: [3H]-SCH 58261 displacement, human A2a membranes. As for the experimental part: Human Adenosine A2a and A1 Receptor Competition Binding Assay Protocol
• A2a: Human A2a Adenosine Receptor membranes, Catalog #RB-HA2a, Receptor Biology, Inc., Beltsville, Md. Dilute to 17 μg/100 μl in membrane dilution buffer (see below). Assay Buffers • Membrane dilution buffer: Dulbecco's Phosphate Buffered Saline (Gibco/BRL)+10 mM MgCl2. • Compound Dilution Buffer: Dulbecco's Phosphate Buffered Saline (Gibco/BRL)+10 mM MgCl2 supplemented with 1.6 mg/ml methyl cellulose and 16% DMSO. Prepared fresh daily. Ligands • A2a: [3H]-SCH 58261, custom synthesis, AmershamPharmacia Biotech, Piscataway, N.J. Stock is prepared at 1 nM in membrane dilution buffer. Final assay concentration is 0.5 nM. • A1: [3H]-DPCPX, AmershamPharmacia Biotech, Piscataway, N.J. Stock is prepared at 2 nM in membrane dilution buffer. Final assay concentration is 1 nM. Non-specific Binding • A2a: To determine non-specific binding, add 100 nM CGS 15923 (RBI, Natick, Mass.). Working stock is prepared at 400 nM in compound dilution buffer. • A1: To determine non-specific binding, add 100 μM NECA (RBI, Natick, Mass.). Working stock is prepared at 400 μM in compound dilution buffer. Compound Dilution • Prepare 1 mM stock solutions of compounds in 100% DMSO. Dilute in compound dilution buffer. Test at 10 concentrations ranging from […] to 30 μM. Prepare working solutions at 4× final concentration in compound dilution buffer. […]

T1 sequence (P29274 whole entry): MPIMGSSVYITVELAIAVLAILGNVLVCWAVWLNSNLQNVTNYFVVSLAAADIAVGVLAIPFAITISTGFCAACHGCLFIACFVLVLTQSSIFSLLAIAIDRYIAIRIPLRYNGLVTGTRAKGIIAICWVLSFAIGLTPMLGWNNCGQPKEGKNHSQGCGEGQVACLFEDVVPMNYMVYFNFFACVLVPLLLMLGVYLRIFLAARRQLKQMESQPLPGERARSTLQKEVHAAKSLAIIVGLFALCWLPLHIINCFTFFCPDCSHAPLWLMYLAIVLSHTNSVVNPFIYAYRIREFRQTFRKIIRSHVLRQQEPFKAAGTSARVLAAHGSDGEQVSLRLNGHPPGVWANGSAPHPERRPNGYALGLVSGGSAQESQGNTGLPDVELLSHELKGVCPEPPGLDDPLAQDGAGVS

By Ki is commonly meant the equilibrium dissociation constant of an inhibitor or competing ligand from its target. A lower Ki goes with a stronger hold on the target. `CC#Cc1nc2c3cnn(CCN4CCN(c5ccc(F)cc5F)CC4)c3nc(N)n2n1` [Example 1-17] gave a Ki of 2.2 nM. This counts as single-digit nanomolar.

In turn, `CC#Cc1nc2c3cnn(CCN4CCN(c5ccc(OCCOC)cc5F)CC4)c3nc(N)n2n1` [Example 5-4] yielded a Ki of 2.3 nM. This Ki and that of the compound before are within 1.5-fold of each other.
